# How the values were obtained:
# GFAP positive astrocytes = experiment: GFAP immunohistochemistry, Sholl analysis of astrocytes, APP/PS1 mice; assay type: in vivo; details: AP5 40 mg/kg once daily 5 months
# Method: (§1) APP/PS1 mice of ages 6 months were randomly divided into vehicle (APP/PS1, n = 10) and treatment groups (AP5, n = 10), which were intragastrically administered with AP5 (40 mg/kg) once daily for consecutive 5 months. AP5 was dissolved in distilled water containing 1% sodium carboxymethyl cellulose.
# (§2) The fixed hemibrains were paraffin-embedded and sectioned in the coronal plane. The slices were deparaffinized with xylene and rehydrated by a series of gradient alcohols. Antigen retrieval through microwave boiling was performed with 10 mM sodium citrate solution at pH 6.0. The slices were cooled down to room temperature and then rinsed in PBS solution. Then the slices were incubated in 10% goat serum blocking solution for 1 h followed by primary antibodies overnight at 4°C. The next day, the slides were labeled with biotinylated or fluorescent secondary antibodies. Slices were washed three times with PBS before being mounted. Images were captured using a SpinSR10 scanner (Olympus, Tokyo, Japan). […]
# After deparaffinization and antigen retrieval, the sections were incubated with 0.3% hydrogen peroxide (H2O2) to inhibit endogenous peroxidase activity for 20 min and blocked by goat serum for 30 min at37°C. Slides were subsequently incubated overnight with specific primary antibodies: anti-Iba1(1:100, ab178847, Abcam, Cambridge, UK) or anti-GFAP (1:100, bs-0199R, Bioss) at4 °C. […]
# recognition memory = experiment: Novel object recognition task; assay type: in vivo, APP/PS1 mice
# Method: as §1
# To investigate whether AP5 treatment plays a key role in cognition improvement of APP/PS1 mice models, the five different behavioral tests were sequentially carried out in the following order: open field, novel object recognition task, spatial object-location task, Y-maze, and Morris water maze (MWM). AP5 was also administered daily during the test periods. […]
# To study the kinetics of Aβ-AChE fibril complex formation, 10 μM Aβ was mixed with AChE (R005282, Roche, Basel, Switzerland) and different concentrations AP5 and incubated with 10 μM ThT and 50 mM glycine-NaOH (pH 8.5) at 37°C, the ThT fluorescence was continually measured for 24 h at 30 min intervals. […] Fluorescence emission at485 nm was measured on a Spectra MAX GeminiXS fluorometerat an excitation wavelength of 450 nm. […]
# To assess locomotor activity, mice were individually tested in an open-field box (38 cm × 38 cm × 25 cm). The movement of the mouse was tracked for 5 min with open fieldvideo analysis system, and the total move distances was automatically recorded as adirect measure of locomotor activity. […]
# CD11c within microglia = experiment: CD11c and Iba1 co-immunostaining (DAM marker); assay type: in vivo; details: AP5-treated vs APP/PS1 mice
# Method: as §1, §2
# Cambridge, UK) or anti-GFAP (1:100, bs-0199R, Bioss) at4 °C. After being washed with PBS, slides were treated with a biotinylated secondary antibody for 30 min and with streptavidin-peroxidase complex for another 30 min at 37°C. Immunostaining was visualized with 3,3′-diaminobenzidine (DAB, ZL1-9018, Zhongshan Jinqiao, Beijing, China ).The images were acquired using a Nikon microscope (Nikon, […]
smiles,measurement,setting,value
"CCN(C)C(=O)Oc1cccc(/C=C2\Cc3cc(OC)c(OC)cc3C2=O)c1 [AP5, (E)-3-((5,6-dimethoxy-1-oxo-1,3-dihydro-2H-inden-2-ylidene)-methyl)phenylethyl(methyl)carbamate]","reactive phenotypes of astrocytes (ramification index, sum of intersects)",GFAP positive astrocytes,attenuated
same,"discrimination index, novel object recognition","recognition memory; at 1 h, vs APP/PS1 mice",significantly higher
same,"discrimination index, novel object recognition","recognition memory; at 24 h, vs APP/PS1 mice without treatment",significantly better
same,CD11c-positive area within the activated microglia,CD11c within microglia,significantly elevated

# Source: article PMC9289467, “A Novel Multifunctional 5,6-Dimethoxy-Indanone-Chalcone-Carbamate Hybrids Alleviates Cognitive Decline in Alzheimer’s Disease by Dual Inhibition of Acetylcholinesterase and Inflammation” (Frontiers in Aging Neuroscience, 2022)
